Earlier results in patent US8911424B2, “Methods and devices for preventing catheter related urinary tract infections” (Ethicon, Inc., priority 2011, dated 2014).

Details: aqueous solubility

[Br][Ag] [Silver Bromide]
Solubility (g/100 g H2O): 0.000014 g/100 g H2O
